Results: BindingDB's records for doi:10.7270/Q2GF0RZ3 (Burnham Center For Chemical Genomics, 2010)

Biological target: G-protein coupled receptor 55 (Homo sapiens, UniProt Q9Y2T6)
Experiment: selective activators of receptor GPR55 – imaging, U2OS cells, beta-arrestin-GFP redistribution, primary screen (AID 1961)

G-protein coupled receptor 55, sequence (Q9Y2T6 whole entry): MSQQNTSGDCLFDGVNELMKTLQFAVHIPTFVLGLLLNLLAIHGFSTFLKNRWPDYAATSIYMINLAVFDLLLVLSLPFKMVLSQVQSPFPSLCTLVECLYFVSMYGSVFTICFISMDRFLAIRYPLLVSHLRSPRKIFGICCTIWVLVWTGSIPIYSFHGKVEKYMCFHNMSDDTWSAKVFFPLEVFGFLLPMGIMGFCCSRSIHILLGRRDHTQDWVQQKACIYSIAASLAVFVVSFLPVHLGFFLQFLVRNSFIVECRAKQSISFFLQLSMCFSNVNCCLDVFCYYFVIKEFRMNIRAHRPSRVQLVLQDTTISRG

EC50 [µM]	SMILES
0.5	Cc1ccc(NS(=O)(=O)c2cc([N+](=O)[O-])ccc2N=NCc2sc(N3CCOCC3)nc2-c2ccccc2)c(C)c1 [MLS000408840]
32	N#CC1C(=O)NC(c2ccc(-c3cc(Cl)ccc3Cl)o2)N(c2ccccc2)C1=S (configuration not stated) [MLS000592167]
32	N#CC1C(=N)OC2=C(CC/C2=C\c2ccccc2)C1c1ccccc1 (configuration not stated) [SMR000176483]

Continued, compound first:

SMILES	EC50 [µM]
COc1ccc(C2c3sc4nc(C)cc(C)c4c3OC(=N)C2C#N)cc1 (configuration not stated) [2-amino-4-(4-methoxyphenyl)-7,9-dimethyl-4H-pyrano[2',3':4,5]thieno[2,3-b]pyridine-3-carbonitrile]	3.41
C=c1[nH]n(-c2ccc(C(=O)O)cc2)c(=O)c1=Cc1ccc(-c2ccccc2F)o1 [4-((4E)-4-{[5-(2-fluorophenyl)-2-furyl]methylene}-3-methyl-5-oxo-4,5-dihydro-1H-pyrazol-1-yl)benzoic acid]	21.3
COC1=CC(=Cc2c(-c3ccccc3)[nH]oc2=O)C=C(Cl)C1=O [4-[(Z)-(3-chloro-5-methoxy-4-oxo-1-cyclohexa-2,5-dienylidene)methyl]-3-phenyl-2H-isoxazol-5-one]	32
CC(C)CN1C(=O)/C(=N\NC(=O)c2cccc(S(=O)(=O)N3CCCCC3)c2)c2ccccc21 [MLS000417389]	4.75
